Source: patent publication US5358936A, “Anionic furanose derivatives, methods of making and using the same” (Gordon; Paul, priority 1991, dated 1994)
Values joined by “and” are separate entries in the source; they are usually repeats but may differ in a detail not shown here. Equal entries are not always repeated. “Also recorded” adds a separate entry of the source.

Tests used:
[1] = system: rat stomachs; assay: Gastric pathology following inflammatory stress and indomethacin, fed rats (Example 20); design: species or system male Sprague Dawley rats; conditions: in vivo
[2] = system: rat paw; conditions: in vivo; cited from earlier work
[3] = system: hind limbs; assay: Hind-foot mobility in established adjuvant arthritis (Example 27); assay type: in vivo, Lewis rats; conditions: Compound III 50 mg/kg oral where given
Text: Adjuvant arthritis was studied because it allows gaining of insight into effects of a drug in established and chronic inflammatory disease. Adjuvant arthritis shares certain features with rheumatoid arthritis but it is distinct. It is widely used in industry because it allows one to predict the potency of non-steroidal anti-inflammatory drugs (NSAID's) [Weichman, in Pharmaceutical Methods in the Control of Inflammation, Chang et al., eds.; Alan R. Liss, New York (1989) p. 362].
The rats used were of the Lewis strain, especially vulnerable to disease induction. Chronic polyarthritis was induced by the subcutaneous injection of complete Freund's adjuvant (CFA) into the rat tail. The CFA employed consists of 10 mg/ml heat-killed tubercle bacilli suspended in paraffin oil. An amount of 0.1 ml was injected, and the disease was allowed to develop over 14 days before daily assessments were made and treatments were initiated. Measurements that assess both increase in hind paw joint swelling and loss in hind limb function are taken.
Indomethacin was employed as a reference standard and given at 2 or 5 mg/kg. Treatment effects of Compound III, alone at 50 mg/kg given by oral gavage and in combination with indomethacin were assessed. Compound III was dissolved in water and indomethacin was suspended in water by homogenization. Both were administered sequentially by oral gavage.
Measurements by caliper include the lateral diameter of the ankle joint of each hind limb, and the dorsoventral diameter of the foot, just behind the toes. The prime measurement of function focusses on the fact that in many animals by day 14, and in most animals by day 16 after adjuvant administration, the arthritic rat can lose use of his hind limbs, which then are dragged behind him like logs. To quantify the recovery of function during treatment, a technique of Martel et al., Agents Actions, 15:403 (1984) was adapted. A blind assessment of the number of animals in each group that were able to draw their leg(s) under them and have these bear weight was carried out.

[4] = system: rat stomachs; assay: Gastric pathology following inflammatory stress and indomethacin, food-deprived rats (Example 21); assay type: in vivo
Description: (§1) Stress was induced by the following procedure. On day one, under ether anesthesia, 18 male Sprague Dawley rats were injected with a suspension of Zymosan A (1 mg/ml in normal saline; Sigma Chemical Co.) in each hind paw. Swelling developed and persisted. This treatment generated activated blood complement locally (including the C5a moiety), which then spread by the bloodstream throughout the animal.
(§2) Twenty-four hours later all rat paws were reinjected, this time with 0.1 ml of proinflammatory zymosan-activated rat serum containing additional amounts of inflammatory complement fragment C5a (as in Example 23, hereinafter). Five hours later 30 mg/kg indomethacin in an aqueous suspension was given to nine such rats by oral garage. These rats also received a subcutaneous injection of 0.1 ml normal saline. Nine other such rats were given indomethacin as above, and Compound III (50 mg/kg in normal saline subcutaneously). Four additional rats, not stressed (normal) were given water by garage as a placebo and saline subcutaneously. All rats were fed ad libitum on standard diet.
In contrast to the study of Example 20, above, in this study animals were food deprived for 24 hours before and also during the 24 hours following drug treatments. All animals were subjected to the inflammatory stress as described in Example 20. Eight such rats received 30 mg/kg indomethacin, and eight rats received indomethacin and Compound III (subcut., 50 mg/kg). Four rats, not stressed, were given placebo by garage.
All animals were sacrificed by ether euthanasia 24 hours later, and their stomachs evaluated for ulcer-related pathology.
In the stressed animals given indomethacin alone, pathology was much more severe than in Example 20. For scoring, therefore, the frequency of ulcers per rat stomach was quantified, and whether they were or were not bleeding.

[5] = system: stomach ulcers; assay: Gastric ulcers in rats with corona virus infection treated with indomethacin (Example 26); assay type: in vivo, rat; conditions: indomethacin 30 mg/kg oral; cimetidine 25 mg/kg s.c. or Compound III 17.5 mg/kg s.c. where given; P<0.02
Text: Corona virus is a non-lethal upper respiratory viral pathogen that not infrequently infects rat colonies. It is a type of rodent coryza or catarrh, the equivalent of a disease that falls somewhere between human influenza and a severe common cold. The animals of this study suffered from this condition, a circumstance which was evident by observation, and which was confirmed by virological diagnosis at the Biological Resources Laboratory of the University of Illinois at Chicago. Since stress is a common component of peptic ulcer development in both animals and man, it was concluded that this feature of the status of these experimental animals rendered them appropriate for an ulcer study.
In this study, animals were not food deprived and were divided into treatment groups such that 15 rats received 30 mg/kg indomethacin alone (in water by oral gavage), 14 rats received indomethacin plus an injection of 25 mg/kg cimetidine subcutaneously, and 7 rats received indomethacin plus subcutaneous injection of 17.5 mg/kg of Compound III.
All animals were sacrificed by ether euthanasia 24 hours later and their stomachs evaluated for ulcer pathology. In this study ulcers were not hemorrhagic. Results are shown below as the average number of stomach ulcers per stomach.

[6] = system: rat stomachs; assay: Gastric pathology following inflammatory stress and indomethacin, fed rats (Example 20); assay type: in vivo, male Sprague Dawley rats; conditions: stress + indomethacin 30 mg/kg oral; Compound III 50 mg/kg subcutaneously where given; 24 hours
Description: as §1, §2
Twenty-four hours later all animals were sacrificed by ether euthanasia. Their stomachs were washed with saline and evaluated for ulcer-related pathology using an illuminated magnifying glass. This assay is similar to that reported by Kinney et al., J. Med. Chem., 33:327 (1990).

[7] = Solubility / dissolution in acid, water and 20 percent methanol; assay type: physicochemical; conditions: pH 1.2; Compound III:Al 2.5 mg/ml
[8] = system: focal submucosal lesions; assay: Ethanol-induced gastric focal lesions (Example 33); assay type: in vivo, rat; conditions: one hour post-ethanol, 50 mg/kg
[9] = Dissolution and buffering of suspensions, HCl titration (Example 16)
Description: Note that the term "apparent pK" in this context is meant to encompass the maximization of buffering that come both from solid-state dissolution and its titration as solute.

[10] = Physicians' Desk Reference (1990); cited from earlier work
[11] = system: gastric mucosal ulcers; assay: Healing of established gastric ulcers induced by acetic acid (Example 34); assay type: in vivo, rat
Text: To evaluate drug effects on peptic ulcer healing, gastric mucosal ulcers were produced in rats, after a two day fast, by a modification of the method of Konturek et al., Am. J. Med., Vol. 86, 6A, 32 (1989). Briefly, to produce a mucosal ulcer, Konturek et al. applied 100 percent acetic acid for twenty seconds to the stomach serosa through a small cylindrical mold, 4.2 mm in diameter. The aim here was to make ulceration more severe than was achieved by the Konturek group so that spontaneous healing would not be as pronounced as they found in the controls, over an experimental period of seven days.
All drugs studied were suspended in 0.25 percent (by weight) aqueous methylcellulose solution as the vehicle or diluent, which also served as the placebo given to the controls. Treatments were given once daily by oral gavage, in one milliliter of vehicle. The treatment groups were: Control; Sucralfate at 200 mg/kg; and Compound III:Al at 200 mg/kg.
At the end of the treatment period, stomachs were removed, ulcer diameters were measured, and determination was made of the presence or absence of perforation.
A second study was carried out in which ulcer evolution was permitted to take place over five additional days, in the absence and presence of treatment with Sucralfate.
A third study was begun one day following the start of study 2, in which ulcer evolution was allowed to take place over five additional days, in the absence and presence of treatment with Compound III:Al.
In another study, after ulcer induction as above, a different dosage protocol was employed at 24 hours to evaluate the interaction of Compound III and orally administered sucralfate on ulcer healing. […] Here, daily drug doses of the following were used: (a) sucralfate at 200 mg/kg, alone and (b) in combination with 80 mg/kg Compound III given by mouth at -45 minutes, and, in a third group, (c) in combination with 10 mg/kg Compound III given IV also at -45 minutes. In this interaction study, drug treatment was continued for three and not five days, as was the case for the above studies, followed by passage of two additional non-treatment days before sacrifice of animals for evaluation of stomach ulcer area and perforation.
Data from all ulcer-healing studies employing a drug dosage of 200 mg/kg and the same ulcerogenesis protocol were pooled as to the frequency of gastric perforation observed on day five, not shown separately, with the day six perforation data shown above.

[12] = system: focal submucosal lesions; assay: Ethanol-induced gastric focal lesions (Example 33); assay type: in vivo, rat
Description: At three hours after ethanol administration, this drug continued to suppress ethanol-induced focal lesions (-57 percent).
A suspension of 25 mg/kg sucralfate+25 mg/kg Compound III:Al in combination was given as a pretreatment administration to another group in the same study. The combination produced an unanticipated augmentation of therapeutic effect against ethanol-induced focal submucosal lesions (-90 percent) at three hours post-ethanol administration. The same interactive phenomenon was also observed when Compound III was used, rather than Compound III:Al.

[13] = three hours post-ethanol, 50 mg/kg, combination 25 + 25 mg/kg

Question: For `COc1ccc2c(c1)c(CC(=O)O)c(C)n2C(=O)c1ccc(Cl)cc1` [Indomethacin], which “ulceration by indomethacin without stress” value [1] is on record?
Answer: induced no ulceration

Question: And the “effect on edema that develops following removal of the tourniquet, in words” value [2]?
Answer: not effective at any time

Question: And the “Total Immobility - Percent” value ([3]; Day 0, indomethacin 2 mg/kg/day)?
Answer: 100%

Question: What about the “Total Immobility - Percent” value ([3]; Day 0, indomethacin 5 mg/kg/day) of the same compound?
Answer: 100%

Question: And the “Total Immobility - Percent” value ([3]; Day 1, indomethacin 2 mg/kg/day, p < 0.02)?
Answer: 67%

Question: And the “Total Immobility - Percent” value ([3]; Day 1, indomethacin 5 mg/kg/day, p < 0.01)?
Answer: 70%

Question: What about the “Total Immobility - Percent” value ([3]; Day 2, indomethacin 2 mg/kg/day, p < 0.01) of the same compound?
Answer: 44%

Question: And the “Total Immobility - Percent” value ([3]; Day 2, indomethacin 5 mg/kg/day)?
Answer: 20%

Question: And the “Total Immobility - Percent” value ([3]; Day 3, indomethacin 2 mg/kg/day)?
Answer: 44%

Question: And the “Total Immobility - Percent” value ([3]; Day 3, indomethacin 5 mg/kg/day, control 100 (12/12))?
Answer: 10%

Question: And the “bleeding ulcers in group” value ([4]; eight rats)?
Answer: 22

Question: And the “total ulcers found in group” value ([4]; eight rats)?
Answer: 23 ulcers

Question: What about the “Bleeding Ulcer Frequency, Mn ± SE” value ([4]; indomethacin 30 mg/kg, Compound III 50 mg/kg subcut. where given, 24 hours, P<0.001 vs indomethacin alone) of the same compound?
Answer: 2.65 ± 0.063 Per Rat

Question: What about the “Total Ulcer Frequency, n ± SE” value ([4]; indomethacin 30 mg/kg, Compound III 50 mg/kg subcut. where given, 24 hours, P<0.01 vs indomethacin alone) of the same compound?
Answer: 2.88 ± 0.67 Per Rat

Question: What about the “ulcers per affected rat” value ([4]; indomethacin: all eight rats, indomethacin + Compound III: only two rats) of the same compound?
Answer: 1-5 ulcers

Question: What about the “Ulcer Frequency per stomach, Mn ± SE” value [5] of the same compound?
Answer: 2.53 ± 0.52 Per Stomach

Question: And the “Mean Pathology score” value [6]?
Answer: 1.43

Question: What about the “Pathology score, individual rat” value [6] of the same compound?
Answer: 0.5 and 1.0 and 0.0 and 4.0 and 7.0

Question: Which results are given for “sucrose octakis-(hydrogen sulfate) aluminum complex [sucralfate, reference compound]”?
Answer: dissolution of suspension in acid [7]: complete dissolution; change in focal lesions versus control [8]: -100%; Focal Lesions per Stomach ([8]; n = 6, control 4.17 ± 1.58, p<0.05): 0.00 per Stomach; HCl needed to lower pH of suspension to below pH 2.00 ([9]; 50 mg in 20 ml distilled water, initial pH 4.44 (aluminum trihydroxide), 4.91 (sucralfate), 4.23 (Compound III:Al), water alone 0.30): 0.4 meq; buffering action, in words ([9]; HCl titration): only a minor buffering action between pH 1.73 and 1.47; Relative Buffering Power between pH 4.5 and 2.0 ([9]; sucralfate = 1): 1; absorption from the gastrointestinal tract [10]: only minimally absorbed; DRUG EFFECT on mean ulcer score ([11]; Day 6, 200 mg/kg oral): -33%; Established ulcer score, individual animal (area in cm^2, + 2.0 for perforation) ([11]; Day 6, 200 mg/kg oral once daily, * = perforation, 200 mg/kg): 2.96 and 5.75 and 3.0 and 1.0 and 0.96 and 3.5 and 1.5 and 0.1 and 1.05 and 0.4; MEAN SCORE, established ulcers ([11]; Day 6, 200 mg/kg oral, controls 3.03 ± 0.73 (sucralfate study, not significant), 4.12 ± 0.67 (Compound III:Al study, P < 0.001)): 2.02 ± 0.55; DRUG EFFECT on mean ulcer area ([11]; day six, 200 mg/kg oral): -43%; Established ulcer area, MEAN ([11]; day six, 200 mg/kg oral, controls 2.14 ± 0.43 (sucralfate, P < 0.1), 2.32 ± 0.61 (Compound III:Al, P < 0.05)): 1.22 ± 0.31 CM^2; Established ulcer area, MEAN (comparative treatments) ([11]; day six, three days treatment, sucralfate 200 mg/kg alone): 2.11 ± 0.41 CM^2; Perforation As Percent ([11]; pooled, 200 mg/kg, control 50, Compound III:Al P < 0.001 vs control and vs sucralfate): 38%; Perforation Frequency ([11]; pooled, 200 mg/kg, days five and six, control 26/52): 12/32; effect on ethanol-produced gastric pathology, in words ([12]; pretreatment 50 mg/kg one hour before ethanol): inhibited all focal submucosal lesions; also recorded: All large vessel vasodilation provoked by ethanol was also inhibited one hour after ethanol treatment; also recorded: at three hours all therapeutic effects of sucralfate on ethanol-produced gastric pathology were absent; change in focal lesions versus control [12, 13]: +6%; change in focal lesions versus control, study employing Compound III [12, 13]: +44%; Focal Lesions per Stomach, study employing Compound III ([12]; three hours post-ethanol, 50 mg/kg, combination 25 + 25 mg/kg, control 2.25 ± 0.98): 3.25 + 1.01 per Stomach; Focal Lesions per Stomach ([12]; three hours post-ethanol, 50 mg/kg, combination 25 + 25 mg/kg, n = 17, control 4.94 ± 1.41): 5.24 ± 1.49 per Stomach
